We go through 24 molecules from US20020082268A1, “Therapeutic compounds for the treatment of asthma and allergy, and methods of use thereof” (priority 2000, published 2002).

Where only a bound is given, the exact number is not on record here.

The target of assay [1] is T1, Histamine H1-receptor (peripheral) (Cavia porcellus, UniProt P31389).
T1 construct: Aliquots of guinea-pig lung membrane preparations corresponding to 800 μg protein are incubated; from tissue; host or cells: guinea-pig lung membranes
T1 sequence (P31389 whole entry): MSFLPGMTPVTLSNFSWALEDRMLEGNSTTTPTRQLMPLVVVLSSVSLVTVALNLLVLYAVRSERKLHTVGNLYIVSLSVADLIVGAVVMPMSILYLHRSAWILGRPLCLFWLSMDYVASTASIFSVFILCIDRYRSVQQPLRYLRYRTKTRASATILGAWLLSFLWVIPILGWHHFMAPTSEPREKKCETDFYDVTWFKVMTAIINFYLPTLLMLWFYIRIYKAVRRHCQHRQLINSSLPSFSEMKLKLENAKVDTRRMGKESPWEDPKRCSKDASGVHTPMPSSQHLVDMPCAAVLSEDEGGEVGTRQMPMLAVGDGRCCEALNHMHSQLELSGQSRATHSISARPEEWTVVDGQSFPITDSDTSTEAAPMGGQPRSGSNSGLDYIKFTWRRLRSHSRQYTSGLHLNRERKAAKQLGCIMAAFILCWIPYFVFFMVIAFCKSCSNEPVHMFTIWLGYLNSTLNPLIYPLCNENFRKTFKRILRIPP
As to the kind of experiment: Histamine H1-receptor (peripheral) binding assay, [3H]pyrilamine, guinea-pig lung membranes. To be noted: 1 nM [3H]pyrilamine. How it is done:
Histamine H1-receptor (peripheral) binding assays were performed according to the literature procedure (ref: Dini, S., et al, Agents and Actions, 1991, 33:181-184). Aliquots of guinea-pig lung membrane preparations corresponding to 800 μg protein are incubated for 15 min at 22° C. in 500 μl of 50 mM Na2HPO4/KH2PO4 buffer (pH 7.5) containing 1 nM [^3H]pyrilamine and increasing concentrations of the competing drugs. Nonspecific binding is determined in the presence of 100 μM triprolidine. After incubation, the samples are filtered rapidly under vacuum through glass fiber filters (GF/B, Whatman) and rinsed several times with ice-cold 50 mM Na2HPO4/KH2PO4 using a cell harvester (Brandel). Bound radioactivity is measured with a scintillation counter (LS 6000, Beckman) using a liquid scintillation cocktail (Formula 989, Packard).The reference compound for this assay is pyrilamine.
The results are expressed as percent of control specific binding and as a percent inhibition of control specific binding obtained in the presence of the tested compounds. IC50 values (concentration causing a half-maximal inhibition of control activity) and Hill coefficients (nH) are determined by non-linear regression analysis of the concentration-response curves. These parameters are obtained by Hill equation curve fitting.

Another assay concerns the target T2, 5-LO (UniProt P09917).
T2 sequence (P09917 1-674): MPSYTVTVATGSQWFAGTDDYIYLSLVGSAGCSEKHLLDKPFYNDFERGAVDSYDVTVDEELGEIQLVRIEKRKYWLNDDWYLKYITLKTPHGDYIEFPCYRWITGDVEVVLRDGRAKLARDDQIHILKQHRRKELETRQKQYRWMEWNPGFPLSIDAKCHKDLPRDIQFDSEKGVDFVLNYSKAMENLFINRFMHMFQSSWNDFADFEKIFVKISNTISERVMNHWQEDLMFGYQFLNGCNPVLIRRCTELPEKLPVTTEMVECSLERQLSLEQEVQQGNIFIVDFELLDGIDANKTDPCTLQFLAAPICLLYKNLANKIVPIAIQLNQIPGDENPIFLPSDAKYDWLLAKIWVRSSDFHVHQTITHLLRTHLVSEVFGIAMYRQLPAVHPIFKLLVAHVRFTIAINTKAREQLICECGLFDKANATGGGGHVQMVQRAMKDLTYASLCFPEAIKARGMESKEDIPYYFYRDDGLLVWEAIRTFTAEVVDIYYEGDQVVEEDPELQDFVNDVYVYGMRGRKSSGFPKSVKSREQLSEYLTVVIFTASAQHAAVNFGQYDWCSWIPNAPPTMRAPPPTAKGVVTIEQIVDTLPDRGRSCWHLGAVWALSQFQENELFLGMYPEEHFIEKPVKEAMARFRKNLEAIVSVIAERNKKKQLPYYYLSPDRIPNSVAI
Kind of assay: 5-LO enzyme assay (RIA quantitation of 5-HETE). In kind it is biochemical. To be noted: Procedure A (RBL-1 cells) or B (HL-60 cells), not given; read-out: Inhibition of 5-LO: IC50. How it is done:
5-LO enzyme assays (radio-immuno assays (RIA)) were performed according to literature procedures (ref: (a) Egan, R. W., and Gale, P. H., J. Biol. Chem. 1985, 260:11554-11559; (b) Shimizu, T., Rdamark, O., and Samuelsson, B. Proc. Natl. Acad. Sci. USA, 1984, 81:689-693); (c) Coffey, M. et al., J. Biol. Chem. 1992, 267: 570-576) using commercially available kits or reagents.
Tissue/cell sources: Rat basophilic leukemia cells (RBL-1);
Substrate: Arachidonic acid (AA) at 14 μM;
Reaction: AA→5-HPETE→5-HETE, incubation at 25° C. for 8 min;
Method: RIA quantitation of 5-HETE, reference compound NGDA (nordihydroquaiaretic acid).
Tissue/cell sources: Human differentiated HL-60 cells;
Substrate: Arachidonic acid (AA) at 0.4 μM;
Reaction: AA→5-HPETE→5-HETE, incubation at 37° C. for 10 min;
The results are expressed as percent of control activity and as a percent inhibition of control activity obtained in the presence of the tested compounds.
IC50 values (concentration causing a half-maximal inhibition of control activity) and Hill coefficients (nH) are determined by non-linear regression analysis of the concentration-response curves. These parameters are obtained by Hill equation curve fitting.

For assay [2], the system named is human differentiated HL-60 cells. Kind of assay: LTB4 secretion assay in differentiated HL-60 cells (A23187, EIA). To be noted: 0.5 h, A23187 5 uM, 37 C, 30 min, read-out: Inhibition of LTB4 secretion: IC50. Format: cell-based. The method, then: The assays were performed using human differentiated HL-60 cells using NDGA as reference compound following the literature procedure (Bennett, C. F. et al, Biochem. J., 1993, 289: 33-39). Substrate A23187 (5 uM) was incubated along with test compound in HL-60 cells at 37 C for 30 min. Reaction product LTB4 was detected by enzymeimmuno assays (EIA) using commercially available kits and a microplate reader.

As usually defined, the IC50 is the concentration at which inhibition is half-maximal. `O=C(O)c1ccc2nc(NC3CCN(c4nc5ccccc5n4Cc4ccc(F)cc4)CC3)n(O)c(=O)c2c1` [Entry 11]: the results for the concentration for half-maximal inhibition (IC50) (in assay [1]; on 5-LO) were less than 10 µM and greater than 10 µM, respectively.
`O=c1c2ccc(Cl)cc2nc(N2CCC(Nc3nc4ccccc4n3Cc3ccc(F)cc3)CC2)n1O` [Entry 18]: the IC50 in assay [1] was less than 1 µM; in assay [2], less than 10 µM.
The like results for `O=c1c2ccc(F)cc2nc(N2CCC(Nc3nc4ccccc4n3Cc3ccc(F)cc3)CC2)n1O` [Entry 17] were, in that order, less than 1 µM and less than 10 µM.
The matching figures for `O=c1c2ccccc2nc(N2CCN(C(c3ccccc3)c3ccc(Cl)cc3)CC2)n1O` (centres unmarked) [Entry 13]: less than 10 µM and less than 10 µM.
Consider `COc1ccc2nc(CN3CCC(Nc4nc5ccccc5n4Cc4ccc(F)cc4)CC3)n(O)c(=O)c2c1` [Entry 7], for which the IC50 in assay [1] is less than 1 µM; at 5-LO it was less than 10 µM.
The like results for `Cc1cccc2c(=O)n(O)c(CN3CCC(=C4c5ccc(Cl)cc5CCc5cccnc54)CC3)nc12` [Entry 4] were, in that order, less than 10 µM and less than 10 µM.
As for `O=c1c2cc(F)c(F)cc2nc(CN2CCC(Nc3nc4ccccc4n3Cc3ccc(F)cc3)CC2)n1O` [Entry 6], the IC50 was less than 1 µM in assay [1] and less than 10 µM at 5-LO.
`O=c1c2cc(Br)ccc2nc(N2CCC(Nc3nc4ccccc4n3Cc3ccc(F)cc3)CC2)n1O` [Entry 14]: the IC50 in assay [1] was less than 1 µM; in assay [2], less than 10 µM; on 5-LO, less than 10 µM.
On to `O=c1c2cc([N+](=O)[O-])ccc2nc(N2CCC(Nc3nc4ccccc4n3Cc3ccc(F)cc3)CC2)n1O` [Entry 24], for which the results for the IC50 in assay [1] and in assay [2] were less than 1 µM and greater than 10 µM, respectively.
For the molecule `O=c1c2cc(F)ccc2nc(CN2CCC(=C3c4ccc(Cl)cc4CCc4cccnc43)CC2)n1O` [Entry 5], the IC50 (in assay [1]; at 5-LO) was less than 10 µM in each case.
`O=C(O)c1ccc2c(=O)n(O)c(CN3CCC(Nc4nc5ccccc5n4Cc4ccc(F)cc4)CC3)nc2c1` [Entry 2]: the results for the IC50 (in assay [1]; at 5-LO) were less than 1 µM and greater than 10 µM, respectively.
As to `O=c1c2ccccc2nc(N2CCC(Nc3nc4ccccc4n3Cc3ccc(F)cc3)CC2)n1O` [Entry 12], the IC50 is less than 1 µM in assay [1], less than 10 µM in assay [2] and less than 10 µM at 5-LO.
Regarding `O=c1c2cc(Cl)ccc2nc(N2CCC(Nc3nc4ccccc4n3Cc3ccc(F)cc3)CC2)n1O` [Entry 19], the IC50 in assay [1] was less than 1 µM; in assay [2] it was less than 10 µM; on 5-LO, less than 1 µM.
In the case of `O=C(O)c1ccc2nc(N3CCC(Nc4nc5ccccc5n4Cc4ccc(F)cc4)CC3)n(O)c(=O)c2c1` [Entry 10], the IC50 is less than 1 µM in assay [1] and greater than 10 µM on 5-LO.
With `O=c1c2c(Cl)cccc2nc(N2CCC(Nc3nc4ccccc4n3Cc3ccc(F)cc3)CC2)n1O` [Entry 22], the IC50 in assay [1] and in assay [2] was less than 1 µM each time.
Consider `COc1cccc2c(=O)n(O)c(N3CCC(Nc4nc5ccccc5n4Cc4ccc(F)cc4)CC3)nc12` [Entry 20], for which the results for the IC50 in assay [1] and in assay [2] were less than 1 µM and greater than 10 µM, respectively.
In the case of `O=c1c2cc(F)ccc2nc(N2CCC(Nc3nc4ccccc4n3Cc3ccc(F)cc3)CC2)n1O` [Entry 15], the IC50 in assay [1] was less than 0.1 µM; in assay [2], less than 10 µM; at 5-LO, less than 1 µM.
Regarding `O=c1c2ccccc2nc(CN2CCC(Nc3nc4ccccc4n3Cc3ccc(F)cc3)CC2)n1O` [Entry 1], the IC50 (in assay [1]; on 5-LO) was less than 1 µM in each case.
Take `O=C(O)c1ccc2nc(CN3CCC(Nc4nc5ccccc5n4Cc4ccc(F)cc4)CC3)n(O)c(=O)c2c1` [Entry 9]: the IC50 is less than 0.1 µM in assay [1] and greater than 10 µM on 5-LO.
As for `COc1ccc2nc(N3CCC(Nc4nc5ccccc5n4Cc4ccc(F)cc4)CC3)n(O)c(=O)c2c1` [Entry 16], the IC50 in assay [1] was less than 1 µM; in assay [2] it was less than 10 µM; at 5-LO, less than 10 µM.
With `O=C(O)c1ccc2c(=O)n(O)c(CN3CCC(=C4c5ccc(Cl)cc5CCc5cccnc54)CC3)nc2c1` [Entry 3], the IC50 is less than 1 µM in assay [1] and less than 10 µM at 5-LO.
The like results for `O=c1c2cc(O)ccc2nc(CN2CCC(Nc3nc4ccccc4n3Cc3ccc(F)cc3)CC2)n1O` [Entry 8] were, in that order, less than 0.1 µM and less than 10 µM.
Consider `COc1cc2nc(N3CCC(Nc4nc5ccccc5n4Cc4ccc(F)cc4)CC3)n(O)c(=O)c2cc1OC` [Entry 21], for which the values for the half-maximal inhibitory concentration (IC50) in assay [1] and in assay [2] were less than 1 µM and less than 10 µM, respectively.
In the case of `Cc1cccc2nc(N3CCC(Nc4nc5ccccc5n4Cc4ccc(F)cc4)CC3)n(O)c(=O)c12` [Entry 23], the 50% inhibitory concentration (IC50) in assay [1] is less than 1 µM; in assay [2], less than 10 µM.
